Patent US20120142646A1, “Novel Compounds 621” (priority 2006, published 2012)

Target: T1, Adrenergic β2 (Homo sapiens, UniProt P07550)
T1 construct: Adherent H292 cells were removed from tissue culture flasks; endogenous in cells; host or cells: H292 cells
Experiment: Adrenergic β2 mediated cAMP production in H292 cells (AlphaScreen cAMP detection)
Type: cell-based
Set-up: key to β2 Int Act: fraction of formoterol maximum activity (formoterol = 1)
In short: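 H292 cells pre-treated 10 min with rolipram (300 μM final), then given agonist for 60 min at room temperature in HBSS/10 mM HEPES pH 7.4, 1.6% DMSO final. Lysate cAMP measured by AlphaScreen against a cAMP standard curve. Four-parameter fit gives pEC50; intrinsic activity relative to formoterol maximum.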

T1 sequence (P07550 whole entry): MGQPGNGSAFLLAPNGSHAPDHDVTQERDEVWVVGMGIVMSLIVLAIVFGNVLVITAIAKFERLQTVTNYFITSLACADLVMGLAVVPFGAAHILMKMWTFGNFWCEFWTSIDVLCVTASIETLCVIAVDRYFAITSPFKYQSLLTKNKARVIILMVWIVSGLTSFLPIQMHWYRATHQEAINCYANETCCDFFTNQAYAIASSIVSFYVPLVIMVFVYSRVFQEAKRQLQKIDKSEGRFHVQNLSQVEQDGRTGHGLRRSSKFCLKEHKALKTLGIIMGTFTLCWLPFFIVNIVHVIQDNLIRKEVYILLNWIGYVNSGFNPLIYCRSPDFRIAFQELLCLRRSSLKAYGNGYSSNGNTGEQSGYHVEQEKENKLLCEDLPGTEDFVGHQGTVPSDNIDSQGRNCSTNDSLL

CCCCC[C@@H](C)N(CCNCCc1ccc(O)c2c1OCC(=O)N2)C(=O)CCNCCc1ccccc1 [Example 60, (R)—N-(Heptan-2-yl)-N-(2-(2-(5-hydroxy-3-oxo-3,4-dihydro-2H-benzo[b][1,4]oxazin-8-yl)ethylamino)ethyl)-3-(phenethylamino)propanamide bis(trifluoroacetate)] was tested, and the EC50 (H292 cells, cAMP production, 60 minutes at room temperature, 300 μM rolipram, read-out: β2 pEC50 (converted)) was 3.98 nM and the “β2 Int Act” value (Intrinsic Activity as a fraction relative to the maximum activity determined for formoterol) was 0.92.
